According to article PMC3608532, “Characterization of a Single-Chain Variable Fragment Recognizing a Linear Epitope of Aβ: A Biotechnical Tool for Studies on Alzheimer’s Disease?” (PLoS ONE, 2013):

Experiments:
Aβ(1-8) = test: SPR binding kinetics to immobilized Aβ(1-8)
Experimental: (§1) Binding kinetics were determined by SPR using a Biacore™ X (GE Healthcare, UK). Synthetic Aβ peptides were dissolved in 10 mM NaAc, pH 4.0. The CM5 sensor chip surface (GE Healthcare, UK) was activated using N-ethyl-N′-3 […] carbodiimide (EDC) and N-hydroxysuccinimide (NHS) chemistry followed by 2-(2-pyridinyldithio)ethaneamine hydrochloride (PDEA), in order to introduce a reactive thiol group. Aβ was coupled via the C-terminal cysteine to the chip at a flow rate of 5 µl/min, and the remaining active groups were blocked by injecting cysteine. The immobilization procedure was performed according to manufacturer’s recommendation. All kinetic analyses were performed at a flow rate of 20 µl/min in PBS. Varying concentrations of scFv-IC16 (10 to 5000 nM) and IC16 (10 to 1000 nM) were injected. […] When required, the surface was regenerated by injecting 20 µl 50 mM glycine, pH 11.0. The data evaluation was performed using Biaevaluation Software 4.1.1. ScFv-IC16 data were fitted according to the Langmuir 1∶1 binding model, whereas IC16 data were fitted according to the bivalent binding model. Standard errors of equilibrium dissociation constants (KD) were calculated using standard errors of the corresponding association and dissociation rate constants.

Aβ(3-8) = test: SPR binding kinetics to immobilized Aβ(3-8)
Experimental: as §1

Aβ(1-42) fibrils = test: ELISA binding to Aβ(1-42) fibrils; design: species or system human; settings: 250 ng/well, 10% N-biotinylated fibrils on streptavidin plate; scFv-IC16 12 and 23 nM; Penta-His and HRP anti-mouse detection, absorbance 450 nm
Experimental: (§2) 1 mg of Aβ(1-42) or N-terminally/C-terminally biotinylated Aβ(1-42) was dissolved in 1 ml 1,1,1,3,3,3-hexafluorosiopropanol (HFIP) and incubated overnight at room temperature. Afterwards, Aβ(1-42) was mixed in the favored ratio with N-terminally/C-terminally biotinylated Aβ(1-42) and aliquoted. HFIP was evaporated using a SpeedVac (Concentrator 5301, Eppendorf, Germany) at room temperature for 30 min. To evaporate remaining HFIP, the sample was incubated overnight at room temperature with an open lid.
(§3) The preparation of Aβ(1-42) monomers and oligomers was carried out by size exclusion chromatography (SEC) as already described by Johansson et al with minor modifications. 250 µg of Aβ peptide was dissolved in 130 µl SEC buffer (50 mM NaPi, pH 7.4; 150 mM NaCl; 0.6% Tween-20) and briefly centrifuged (1 min, 16 100×g, room temperature) to remove insoluble fibrillar material. 100 µl of the supernatant was applied on a Superdex75 10/300 column (GE Healthcare, UK) connected to an Äkta purifier system (GE Healthcare, UK). The sample was eluted at a flow rate of 0.6 ml per min at room temperature and detected at wavelengths of 214, 250 and 278 nm. […] The concentration of the Aβ preparations was determined using the Micro BCA Protein Assay Kit (Thermo Scientific, Waltham, MA, USA). […] The samples were measured at a wavelength of 570 nm with a Polarstar Optima plate reader (BMG, Ortenberg, Germany). […]

Aβ(1-42) oligomers = test: ELISA binding to Aβ(1-42) oligomers; design: species or system human; settings: 250 ng/well, 10% N-biotinylated oligomers on streptavidin plate; compared with fibrils, p = 0.0014
Experimental: as §2, §3

Aβ(1-42) monomers = test: ELISA binding to Aβ(1-42) monomers; design: species or system human; settings: 250 ng/well
Experimental: as §2, §3

[1] = SPR Biacore X, CM5 chip, PBS, 25°C, global fit, scFv-IC16 Langmuir 1:1 model, IC16 bivalent model, ± standard error, SEM

“scFv-IC16: single-chain variable fragment (VH-(Gly4Ser)3-VL, His6- and Myc-tag) derived from Aβ binding monoclonal antibody IC16, expressed in E. coli” was tested. Which k on (Aβ(1-8); SPR Biacore X, Aβ peptide coupled via C-terminal cysteine to CM5 chip, PBS, 25°C, 20 µl/min, global fit, scFv-IC16 Langmuir 1:1 model, IC16 bivalent model, ± standard error, SEM) did it give?
Its k on is 3.10±0.02×10^4 M^-1 s^-1.

What about the Kd (Aβ(1-8); SPR Biacore X, CM5 chip, PBS, 25°C, global fit, scFv-IC16 Langmuir 1:1 model, IC16 bivalent model, standard error from kon and koff errors, SEM) of the same substance?
Its Kd is 0.553 µM.

What about the k off (Aβ(1-8); [1]) of the same substance?
Its k off is 1.72±0.005×10^−2 s^-1.

And the Kd (Aβ(1-8); SPR, Langmuir 1:1 binding model)?
Its Kd is 0.55 µM.

What about the Kd (Aβ(3-8); SPR Biacore X, CM5 chip, PBS, 25°C, global fit, scFv-IC16 Langmuir 1:1 model, IC16 bivalent model) of the same substance?
The Kd was 5.25 µM.

What about the k off (Aβ(3-8); [1]) of the same substance?
Its k off is 43.9±0.3×10^−3 s^-1.

And the k on (Aβ(3-8); [1])?
Its k on is 8.36±0.5×10^3 M^-1 s^-1.

What about the Kd (Aβ(3-8); SPR, A2 of Aβ truncated) of the same substance?
The Kd was over 5 µM.

And the “ELISA binding to Aβ fibrils” value (Aβ(1-42) fibrils)?
The value was “preferential binding”.

What about the “ELISA binding to Aβ oligomers” value (Aβ(1-42) oligomers) of the same substance?
Its value is “weaker”.

What about the “ELISA binding to Aβ monomers, C-terminal biotin tag” value (Aβ(1-42) monomers; 100% C-terminally biotinylated monomers, p = 0.038 versus N-bio oligomers) of the same substance?
The value was “very similar to Aβ oligomers”.

And the “ELISA binding to Aβ monomers, N-terminal biotin tag” value (Aβ(1-42) monomers; 100% N-terminally biotinylated monomers on streptavidin plate)?
Its value is “not detected”.
